Source: patent US4028399A, “Carbamate” (priority 1969, dated 1977)

test system: houseflies; assay type: in vivo, common houseflies; details: 1 mm^3 acetonic solution to ventral abdomen under CO2 narcosis; kill rate after 4 hours
Method: ADMINISTRATION TEST WITH COMMON HOUSEFLIES
1 mm^3 of the acetonic solution of the active ingredients is administered to the ventral abdomen of houseflies under CO2 narcosis. The kill rate on the insects thus treated is determined after 4 hours, from which the mortality curve is calculated.

| Compound | LD50 |
| --- | --- |
| CNC(=O)Oc1cc(C)cc(C(C)C)c1 [Comparative substance II, 3-isopropyl-5-methyl-N-methylcarbamate] | 0.26 /fly |
| CCc1cc(CC)cc(OC(=O)NC)c1 [3,5-diethyl-phenyl-N-methylcarbamate] | 0.12 /fly |
| CNC(=O)Oc1cc(C)c(C)cc1Cl [Comparative substance III, 3,4-dimethyl-6-chloro-N-methylcarbamate] | 10.0 /fly |
